Where two headings read alike, the source gives them in different places.
How the values were obtained:
wild type Aβ42 = wild type Aβ42 (Homo sapiens, UniProt P05067); experiment: IMS-MS assay for Aβ42 oligomer formation (arrival time distributions); settings: for Aβ42 wt dodecamer formation (overall conclusion): 10 μM in 10 mM ammonium acetate
Method: A physiologically relevant solution of Aβ42 and a drug candidate was incubated for varying periods of time and then loaded into a special spray capillary and the solution nano-electrosprayed, captured by an ion funnel, transported, dehydrated and continuously fed into a quadrapole mass analyser, and detected. This process yielded a mass spectrum. In order to obtain either structural or oligomeric information, the ions were next stored at the end of the funnel and then pulse injected at low energy into a drift cell filled with helium gas and subjected to a low electric field to transport the ions through the cell. The quadrapole is set to pass a particular mass to charge ratio (m=z), and an arrival time distribution (ATD) of the ions at this m=z is obtained at the detector (see, e.g., Bernstein et al., Journal of the American Chemical Society, 127(7):2075-2084, 2005). All molecules were at a concentration of 10 μM in 10 mM ammonium acetate.
By collecting Arrival Time Distributions (ATDs) of each of these charge states, ions of the same mass-to-charge (m/z) ratio were separated by their size and shape.
Using kinetic theory and parameters of the experiment, arrival times are related to an ion's mobility in the drift cell, which is inversely proportional to the ion's collision cross section. Oligomer formation is shown for dimer (n=2) up to dodecamer (n=12) for the z/n=−5/2 charge state.
For example, the peak in z/n=−3 ATD with a collision cross section of 698 Å^2 corresponds to a less compact solution-phase monomer structure. The peak of 642 Å^2 corresponds to a more compact gas phase structure.

[1] = molecular target: Human Ether-á-go-go-Related-Gene channel (hERG) (Homo sapiens, UniProt Q12809); experiment: hERG cellular patch-clamp assay (cardiac toxicity)
Human Ether-á-go-go-Related-Gene channel (hERG), sequence (Q12809 whole entry): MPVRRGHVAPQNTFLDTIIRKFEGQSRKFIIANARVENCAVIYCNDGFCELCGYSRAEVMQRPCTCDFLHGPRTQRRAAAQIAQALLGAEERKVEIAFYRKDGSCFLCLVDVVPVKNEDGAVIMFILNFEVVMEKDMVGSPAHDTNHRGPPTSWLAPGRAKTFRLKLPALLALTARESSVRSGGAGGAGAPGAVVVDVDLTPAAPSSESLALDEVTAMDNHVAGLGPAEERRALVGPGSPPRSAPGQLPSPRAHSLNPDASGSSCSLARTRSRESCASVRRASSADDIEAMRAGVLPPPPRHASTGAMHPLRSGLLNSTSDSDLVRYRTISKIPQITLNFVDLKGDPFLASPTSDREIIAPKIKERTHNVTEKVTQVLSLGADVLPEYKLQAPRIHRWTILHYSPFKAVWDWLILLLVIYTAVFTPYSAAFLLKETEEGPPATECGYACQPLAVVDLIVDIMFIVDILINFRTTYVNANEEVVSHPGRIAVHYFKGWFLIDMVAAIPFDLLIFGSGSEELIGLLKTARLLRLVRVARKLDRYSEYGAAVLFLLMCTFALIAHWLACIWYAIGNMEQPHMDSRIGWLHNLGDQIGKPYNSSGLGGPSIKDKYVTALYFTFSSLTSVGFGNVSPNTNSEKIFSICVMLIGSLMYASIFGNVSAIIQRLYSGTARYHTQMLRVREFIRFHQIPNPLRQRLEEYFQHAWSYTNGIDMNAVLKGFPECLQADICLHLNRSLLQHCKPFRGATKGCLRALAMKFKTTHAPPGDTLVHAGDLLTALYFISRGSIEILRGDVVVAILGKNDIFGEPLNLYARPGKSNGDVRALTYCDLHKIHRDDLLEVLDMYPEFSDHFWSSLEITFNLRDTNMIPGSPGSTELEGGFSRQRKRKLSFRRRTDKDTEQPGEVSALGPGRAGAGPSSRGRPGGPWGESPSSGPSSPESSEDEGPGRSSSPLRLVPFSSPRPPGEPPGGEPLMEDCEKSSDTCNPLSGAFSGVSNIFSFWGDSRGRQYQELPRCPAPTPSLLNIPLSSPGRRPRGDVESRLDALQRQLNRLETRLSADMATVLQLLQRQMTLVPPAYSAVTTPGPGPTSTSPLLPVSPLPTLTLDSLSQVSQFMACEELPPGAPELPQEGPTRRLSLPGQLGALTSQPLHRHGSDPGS
Excerpt: Contract laboratories provided screening of hERG ion channel cell lines as an indicator of cardiac safety. […] Cellular “patch-clamp” assays provide the data required by ICH guidelines.

[2] = system: Aβ oligomer induced changes in membrane trafficking in 21 DIV primary rodent neuronal cultures; experiment: Membrane trafficking assay (MTT) in primary neuronal cultures treated with oligomeric Aβ; format: cell-based; settings: read-out: MTT ASSAY EC50
Method: Seven drug candidates (A0101-A0107) (FIG. 2) were tested in a primary cell biological screening assay capable of measuring Aβ oligomer induced changes in membrane trafficking in 21 DIV primary rodent neuronal cultures (see Izzo et al., PLoS ONE 9(11):e111899, 2014). Briefly, cultures were treated with either oligomeric Aβ or oligomeric Aβ plus a candidate compound for 24 hours. Non-Aβ treated cells served as a negative control. Next, a non-membrane permeable dye (MTT) was added to the dishes for 1 hour, during which time the dye can be internalized by endocytosis. At the end of the hour, the dye containing media was removed, the dishes were rinsed extensively with isotonic buffer, and finally, the washed cells were extracted with a Triton X-100 buffer to solubilize membranes and release the dye, which is quantitated.

[3] = Caco-2 A-B and B-A permeability test; format: in vitro ADME; settings: human
Method: Subsequently, Caco-2 A-B and B-A permeability tests (pH 7.4) were performed on the […]-107 molecules in order to assess their human intestinal permeability and drug efflux. This assay measures the […] rate of transport of a compound across the Caco-2 cell line that is derived from a human colon carcinoma. The cells have characteristics that resemble intestinal epithelial cells such as the formation of a polarized monolayer, well-defined brush border on the apical surface and intercellular junctions.

[4] = Caco-2, apical to basolateral, pH 7.4, read-out: A-B perm
[5] = Caco-2, basolateral to apical, pH 7.4, read-out: B-A perm

wild type Aβ42, sequence (P05067 672-713 limits assumed): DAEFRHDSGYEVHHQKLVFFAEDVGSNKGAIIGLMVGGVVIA

Papp A→B [3, 4] [nm/s]	Papp B→A [3, 5] [nm/s]	SMILES	IC50 [1] [µM]	EC50 [2] [µM]	further results
184	65	N#Cc1ccc(CNCc2cccc(CN3CCCC3)c2)cc1 [AC0107, 4-[({[3-(pyrrolidin-1-ylmethyl)phenyl]methyl}amino)methyl]benzonitrile]	> 10	0.45	relative amounts of earlier arriving structures in z/n=−4 ATD (wild type Aβ42; 1:10 Aβ42 wt to compound, day 2): reduces; wild type Aβ42 dodecamer formation (wild type Aβ42; 1:10 Aβ42 wt to compound, day one): inhibited; Aβ42 hexamer growth (wild type Aβ42; IMS-MS): slowing hexamer growth; Aβ42 wt dodecamer formation (overall conclusion) (wild type Aβ42; IMS-MS): inhibitor of Aβ42 wt dodecamer formation; dodecamer formation in z/n=−5/2 ATD (wild type Aβ42; after 29 hours): still inhibited; earlier arriving structures in z/n=−3 ATD (wild type Aβ42; between 26 and 30 hours incubation time): disappear
594	139	N#Cc1cccc(CNCc2ccc(CN3CCOCC3)cc2)c1 [AC0104, 3-[({[4-(morpholin-4 ylmethyl)phenyl]methyl}amino)methyl]benzonitrile]	> 10	0.7	–
–	–	CNC(=C[N+](=O)[O-])NCCSCc1ccc(CN(C)C)o1 [ranitidine, reference compound]	–	–	Papp A→B ([3]; Caco-2, pH 7.4): 7 nm/s; Papp B→A ([3]; Caco-2, pH 7.4): 35 nm/s
–	–	C[C@@H](NCCCc1cccc(C(F)(F)F)c1)c1cccc2ccccc12 [Cinacalcet, reference compound]	–	–	Aβ42 wt dodecamer formation (overall conclusion) (wild type Aβ42; IMS-MS): did not inhibit
606	242	CC(C)NCC(O)COc1cccc2ccccc12 (centres unmarked) [propranolol, reference compound]	–	–	–
616	397	CN(C)C(=O)C(c1ccccc1)N1CCN(c2ccc(O)cc2)CC1 (centres unmarked) [AC0103, 2-[4-(4-hydroxyphenyl)piperazin-1-yl]-N,N-dimethyl-2 phenylacetamide]	> 10	1.3	–
300	45	CN(C)Cc1ccc(CNCc2ccc3c(c2)OCCO3)cc1 [AC0102, (2,3-dihydro-1,4-benzodioxin-6-ylmethyl)({4[(dimethylamino)methyl]-phenyl}methyl)amine]	> 10	3.5	–

SMILES	Papp A→B [3, 4] [nm/s]	Papp B→A [3, 5] [nm/s]	IC50 [1] [µM]	EC50 [2] [µM]	further results
Cc1cc(CN2CC=C(c3ccc(O)cc3)CC2)no1 [AC0106, 4-{1-[(5-methyl-1,2-oxazol-3-yl)methyl]-1,2,3,6tetrahydropyridin-4-yl}phenol]	744	423	> 10	1	–
COc1cc2c(c(OC)c1OC)-c1ccc(OC)c(=O)cc1[C@@H](NC(C)=O)CC2 [colchicine, reference compound]	1	139	–	–	–
CC(=O)Nc1ccc(CNCCc2cccc(Cl)c2)cc1 [AC0101, N-[4-({[2-(3-chlorophenyl)ethyl]amino}methyl)phenyl]acetamide]	1010	416	8	3.9	hERG inhibition (in words) ([1]; summary of Table 2, 4th column): moderate potency
